Drawing on patent US7741493B2, “Heterocyclic compounds as P2X7 ion channel blockers” (Aventis Pharmaceuticals Inc., priority 2003, dated 2010), this text covers IC50 for 32 compounds.

Structures can show the parent of a compound that is named as a salt.

The test deals with T1, P2X7 (Homo sapiens, UniProt Q99572).
T1 sequence (Q99572 1-595): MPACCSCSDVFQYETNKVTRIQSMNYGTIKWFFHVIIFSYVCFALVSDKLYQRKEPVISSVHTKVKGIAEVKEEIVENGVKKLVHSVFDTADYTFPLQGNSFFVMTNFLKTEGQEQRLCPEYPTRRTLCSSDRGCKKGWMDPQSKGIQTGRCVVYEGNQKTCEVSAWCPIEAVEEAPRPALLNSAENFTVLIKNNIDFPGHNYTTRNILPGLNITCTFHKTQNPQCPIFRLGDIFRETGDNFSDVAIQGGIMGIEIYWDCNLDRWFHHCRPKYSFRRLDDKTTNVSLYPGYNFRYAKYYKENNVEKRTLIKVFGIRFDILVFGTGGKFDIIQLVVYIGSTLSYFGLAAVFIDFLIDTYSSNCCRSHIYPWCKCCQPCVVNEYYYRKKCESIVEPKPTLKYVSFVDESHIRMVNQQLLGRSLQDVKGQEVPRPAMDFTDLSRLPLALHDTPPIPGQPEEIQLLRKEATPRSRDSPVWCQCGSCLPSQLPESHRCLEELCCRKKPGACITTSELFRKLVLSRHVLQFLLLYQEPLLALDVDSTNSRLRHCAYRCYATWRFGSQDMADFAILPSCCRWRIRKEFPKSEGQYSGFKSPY
Nature of the test: YO-PRO-1 dye uptake assay in U373 cells stably expressing P2X7. Format: cell-based. Also noted: The complete open reading frame of human P2X7 was amplified from Incyte clone 148057; expressed in transfected cells. As to conditions: dye uptake through P2X7, U373 cells, 300 μM BzATP, 5 μM YO-PRO-1, test compounds 30 nM to 3 μM; read-out: IC50. As for the experimental part: Following a 24-hr exposure to DNA, cells were trypsinized and re-seeded at low density in the presence of […] G418. After incubation for 2 weeks, isolated clones were selected with cloning cylinders and replated in […] G418. Cell clones were then expanded. Clones were screened for P2X7 by applying ATP and recording the resultant current using patch clamp electrophysiology.
U373 cells stably expressing P2X7 were used to screen drugs via a dye uptake assay. Cells were plated overnight on collagen coated 96-well plates at a density of 35,000 cells per well. The following day, culture media was replaced with Mg^++ and Ca^++-free Hank's balanced salt solution and various concentrations of test compounds ranging from 30 nM to 3 μM. Cells were then allowed to incubate with test compounds at 37° C. for 20 minutes. Following this incubation period YO-PRO-1 dye (Molecular Probes, Eugene, Oreg., final concentration 5 μM) and 2′-& 3′-O-(4-Benzolybenzoyl)-Adenosine 5′-triphosphate (Sigma Chemical, St Louis, Mo., final concentration 300 μM) were added to the cells sequentially. Cells were then incubated at 37° C. for 1.5 hours. […] Fluorescence in the presence of test substances was compared to that in the absence of test substances (control).
One may read the IC50 as the point on the concentration scale where inhibition reaches its midpoint. In the case of `CC(Cc1ccccc1)C1=N[C@@H](c2ccccc2)[C@@H](c2ccccc2)N1` (relative stereo) [2-[1-Methyl-2-phenylethyl]-cis-4,5-diphenyl-4,5-dihydro-1H-imidazole trifluoroacetate], the IC50 was 0.57 µM. The value for `CC(OCC1=N[C@@](C)(c2ccccc2)[C@@H](c2ccccc2)N1)C1CCCC1` (relative stereo) [2-[(1-Cyclopentyl-1-ethoxy)methyl]-cis-4,5-diphenyl-4-methyl-4,5-dihydro-1H-imidazole hydrochloride] was 0.16 µM; that for `CC(OCC1=N[C@@](C)(c2ccccc2)[C@@H](c2ccccc2)N1)C1CC1` (relative stereo) [2-[(1-Cyclopropyl-1-ethoxy)methyl]-cis-4,5-diphenyl-4-methyl-4,5-dihydro-1H-imidazole trifluoroacetate] was 0.397 µM. The value for `C#CC(CCC)OCC1=N[C@@](C)(c2ccccc2)[C@@H](c2ccccc2)N1` (relative stereo) [2-[(1-Ethynyl-1-butoxy)methyl]-cis-4,5-diphenyl-4-methyl-4,5-dihydro-1H-imidazole hydrochloride] was 0.739 µM. Next, `C[C@@]1(c2ccccc2)N=C(COc2ccccc2Cl)N[C@@H]1c1ccccc1` (relative stereo) [2-[(2-Chlorophenoxy)methyl]-cis-4,5-diphenyl-4-methyl-4,5-dihydro-1H-imidazole hydrochloride]: 0.743 µM. For `C[C@@]1(c2ccccc2)N=C(COc2cccc(F)c2)N[C@@H]1c1ccccc1` (relative stereo) [2-[(3-Fluorophenoxy)methyl]-cis-4,5-diphenyl-4-methyl-4,5-dihydro-1H-imidazole trifluoroacetate], the IC50 turned out to be 0.104 µM.

As for `C[C@@]1(c2ccccc2)N=C(COC2CCC2)N[C@@H]1c1ccccc1` (relative stereo) [2-[(Cyclobutoxy)methyl]-cis-4,5-diphenyl-4-methyl-4,5-dihydro-1H-imidazole trifluoroacetate], the IC50 is 0.722 µM. The value for `C[C@@]1(c2ccccc2)N=C(COCC2CCCC2)N[C@@H]1c1ccccc1` (relative stereo) [2-[(Cyclopentylmethoxy)methyl]-cis-4,5-diphenyl-4-methyl-4,5-dihydro-1H-imidazole hydrochloride] was 0.194 µM; that for `C[C@@]1(c2ccccc2)N=C(COC2CCCC2)N[C@@H]1c1ccccc1` (relative stereo) [2-[(Cyclopentyloxy)methyl]-cis-4,5-diphenyl-4-methyl-4,5-dihydro-1H-imidazole hydrochloride] was 0.487 µM; that for `C[C@@]1(c2ccccc2)N=C(COc2ccccc2)N[C@@H]1c1ccccc1` (relative stereo) [2-[(Phenoxy)methyl]-cis-4,5-diphenyl-4-methyl-4,5-dihydro-1H-imidazole trifluoroacetate] was 0.405 µM.

With `C[C@@]1(c2ccccc2)N=C(COCC2CC2)N[C@@H]1c1ccccc1` (relative stereo) [2-[[(Cyclopropyl)methoxy]methyl]-cis-4,5-diphenyl-4-methyl-4,5-dihydro-1H-imidazole trifluoroacetate], the IC50 was 0.676 µM. The value for `C[C@@]1(c2ccccc2)N=C(NCc2ccc(F)cc2)N[C@@H]1c1ccccc1` (relative stereo) [(cis-4,5-Diphenyl-4-methyl-4,5-dihydro-1H-imidazol-2-yl)-(4-fluorobenzyl)amine hydrochloride] was 0.063 µM; that for `C[C@@]1(c2ccccc2)N=C(CCc2ccccc2)N[C@@H]1c1ccccc1` (relative stereo) [cis-4,5-diphenyl-4-methyl-2-(2-phenylethyl)-4,5-dihydro-1H-imidazole] was 0.022 µM; that for `C[C@@]1(c2ccccc2)N=C(CSCc2ccccc2)N[C@@H]1c1ccccc1` (relative stereo) [cis-4,5-diphenyl-4-methyl-2-[(benzylsulfanyl)methyl]-4,5-dihydro-1H-imidazole] was 0.525 µM. As for `c1ccc(CCC2=N[C@@H](c3ccccc3)[C@@H](c3cccnc3)N2)cc1` (relative stereo) [ditrifluoroacetate], the IC50 was 0.251 µM. Next, `c1ccc(SCC2=N[C@@H](c3ccccc3)[C@@H](c3cccnc3)N2)cc1` (relative stereo) [ditrifluoroacetate]: 0.866 µM. Regarding `CC(C1=N[C@@H](c2ccccc2)[C@@H](c2ccccc2)N1)c1ccc(Cl)cc1` (relative stereo) [trifluoroacetate], the IC50 came out at 0.423 µM. Next, `Fc1cccc(CC2=N[C@@H](c3ccccc3)[C@@H](c3ccccc3)N2)c1F` [2-(2,3-Difluorobenzyl)-cis-4,5-diphenyl-4,5-dihydro-1H-imidazole trifluoroacetate]: 0.93 µM; `Fc1cccc([C@H]2NC(Cc3ccc(F)cc3F)=N[C@H]2c2cccc(F)c2)c1` [2-(2,4-Difluorobenzyl)-cis-4,5-bis-(3-fluorophenyl)-4,5-dihydro-1H-imidazole trifluoroacetate]: 0.409 µM; `Fc1ccc(CC2=N[C@@H](c3ccccc3)[C@@H](c3ccccc3)N2)c(F)c1` [2-(2,4-Difluorobenzyl)-cis-4,5-diphenyl-4,5-dihydro-1H-imidazole trifluoroacetate]: 0.042 µM.

For `Fc1cccc([C@H]2NC(Cc3ccccc3F)=N[C@H]2c2cccc(F)c2)c1` [2-(2-Fluorobenzyl)-cis-4,5-bis-(3-fluorophenyl)-4,5-dihydro-1H-imidazole trifluoroacetate], the IC50 turned out to be 0.449 µM. In the case of `Fc1cccc([C@H]2NC(Cc3ccc(F)c(F)c3)=N[C@H]2c2cccc(F)c2)c1` [2-(3,4-Difluorobenzyl)-cis-4,5-bis-(3-fluorophenyl)-4,5-dihydro-1H-imidazole trifluoroacetate], the IC50 worked out at 0.079 µM.

Consider `Fc1ccc(CC2=N[C@@H](c3ccccc3)[C@@H](c3ccccc3)N2)cc1F` [2-(3,4-Difluorobenzyl)-cis-4,5-diphenyl-4,5-dihydro-1H-imidazole trifluoroacetate], for which the IC50 came out at 0.024 µM.

On to `Fc1cccc([C@H]2NC(Cc3cccc(Cl)c3)=N[C@H]2c2cccc(F)c2)c1` [2-(3-Chlorobenzyl)-cis-4,5-bis-(3-fluorophenyl)-4,5-dihydro-1H-imidazole trifluoroacetate], for which the IC50 came to 0.33 µM.

On to `Fc1ccc(CC2=N[C@@H](c3cccc(F)c3)[C@@H](c3cccc(F)c3)N2)cc1` [2-(4-Fluorobenzyl)-cis-4,5-bis-(3-fluorophenyl)-4,5-dihydro-1H-imidazole trifluoroacetate], for which the IC50 stood at 0.217 µM. For the compound `FC(F)(F)c1ccc(CC2=N[C@@H](c3ccccc3)[C@@H](c3ccccc3)N2)cc1` [2-(4-Trifluoromethylbenzyl)-cis-4,5-diphenyl-4,5-dihydro-1H-imidazole trifluoroacetate], the IC50 was found to be 0.403 µM. The value for `OC(CC1=N[C@@H](c2ccccc2)[C@@H](c2ccccc2)N1)c1ccccc1` (stereo partly drawn) [2-(cis-4,5-diphenyl-4,5-dihydro-1H-imidazol-2-yl)-1-phenylethan-1-ol] was 0.195 µM; that for `c1ccc(C(CC2=N[C@@H](c3ccccc3)[C@@H](c3ccccc3)N2)c2ccccc2)cc1` [2-[2,2-diphenylethyl]-cis-4,5-diphenyl-4,5-dihydro-1H-imidazole trifluoroacetate] was 0.32 µM; that for `Fc1cccc([C@H]2NC(CCc3ccccc3Cl)=N[C@H]2c2cccc(F)c2)c1` [2-[2-(2-Chlorophenyl)ethyl]-cis-4,5-bis-(3-fluorophenyl)-4,5-dihydro-1H-imidazole] was 0.14 µM. The value for `Clc1ccccc1CCC1=N[C@@H](c2ccccc2)[C@@H](c2ccccc2)N1` [2-[2-(2-Chlorophenyl)ethyl]-cis-4,5-diphenyl-4,5-dihydro-1H-imidazole trifluoroacetate] was 0.048 µM; that for `Fc1cccc([C@H]2NC(CCc3ccccc3F)=N[C@H]2c2cccc(F)c2)c1` [2-[2-(2-Fluorophenyl)ethyl]-cis-4,5-bis-(3-fluorophenyl)-4,5-dihydro-1H-imidazole trifluoroacetate] was 0.304 µM; that for `Fc1ccccc1CCC1=N[C@@H](c2ccccc2)[C@@H](c2ccccc2)N1` [2-[2-(2-Fluorophenyl)ethyl]-cis-4,5-diphenyl-4,5-dihydro-1H-imidazole trifluoroacetate] was 0.164 µM.
